Results from publication PMC7087482 (Journal of medicinal chemistry, 2020).
Entries after “also recorded” stand apart in the source; their conditions may differ.

Columns and labels:
CYP3A5 [1] = target: T1, CYP3A5 (Homo sapiens, UniProt P20815); assay: CW X-band EPR spectroscopy of CYP3A5-ligand complexes; conditions: CYP 200 μM, compound 400 μM, 10 K
CYP3A4 [2] = target: T2, CYP3A4 (Homo sapiens, UniProt P08684); assay: CW X-band EPR spectroscopy of CYP3A4-ligand complexes; conditions: CYP 200 μM, compound 400 μM, 10 K
CYP3A5 [3] = target: T1, CYP3A5; assay: UV-visible absorbance titration with purified recombinant CYP3A5; conditions: UV-visible Soret band shift
CYP3A4 [4] = target: T2, CYP3A4; assay: P450-Glo luminescence biochemical inhibition assay; conditions: compound at 1.8 μM, DMSO 0.1%
CYP3A4 [5] = target: T2, CYP3A4; assay: Cytochrome P450 inhibition panel in pooled human liver microsomes; format: biochemical; conditions: 1.8 μM clobetasol
[6] = system: CYP1A2, 2B6, 2C8, 2C9, 2C19, and 2D6; assay: as above; format: biochemical; conditions: 1.8 μM clobetasol, own probe substrate per CYP
CYP3A5 [7] = target: T1, CYP3A5; assay: CYP3A5 activity in AsPC-1 cells by 1-hydroxymidazolam formation; format: cell-based; conditions: 5 μM midazolam, 24 h
CYP3A4 [8] = assay: Western blot of CYP3A4 protein level after compound treatment; conditions: 1 μM compound, 24 h treatment

Row | SMILES | Heme iron spin state of CYP3A5 complex (EPR) (CYP3A5 [1]) | Heme iron spin state of CYP3A4 complex (EPR) (CYP3A4 [2]) | Spectral shift type on titration with CYP3A5 (CYP3A5 [3]) | Inhibition of CYP3A4 (CYP3A4 [4]) | Inhibition of CYP3A4-mediated catalysis, substrate midazolam (CYP3A4 [5]) | Inhibition of CYP3A4-mediated catalysis, substrate testosterone (CYP3A4 [5]) | Inhibition of other major human CYPs [6] | Inhibition of CYP3A5 activity (1OH-MDZ formation) (CYP3A5 [7]; CYP3A5 overexpressed (+Dox) in WT or 3A5-/- AsPC-1 cells) | Inhibition of CYP3A5 activity (1OH-MDZ formation) compared with ketoconazole (CYP3A5 [7]; parental AsPC-1 (WT) cells, dose-response) | Effect on CYP3A4 protein level (Western blot) (CYP3A4 [8])
1 | Cc1ncc2n1-c1ccc(Cl)cc1C(c1ccccc1F)=NC2 [midazolam, Midazolam] | five-coordinate HS ferric heme iron state | an HS signal was induced | typical type I CYP spectral shift | – | – | – | – | – | – | –
2 | CCC(=O)O[C@]1(C(=O)CCl)[C@@H](C)C[C@H]2[C@@H]3CCC4=CC(=O)C=C[C@]4(C)[C@@]3(F)[C@@H](O)C[C@@]21C [clobetasol, Clobetasol propionate] | five-coordinate HS ferric heme iron state | no new HS formation | – | no inhibition | uninhibited | uninhibited | little or no inhibition; also recorded: no significant inhibition | inhibited the CYP3A5 activity | slightly more potent | did not increase the protein level of CYP3A4
3 | CC(=O)N1CCN(c2ccc(OCC3COC(Cn4ccnc4)(c4ccc(Cl)cc4Cl)O3)cc2)CC1 (stereo not shown) [ketoconazole, Ketoconazole] | – | – | – | – | – | – | – | – | – | increased CYP3A4 protein expression
